US10137138B1, “Sulfonylurea derivatives of oleanolic acid” (KING SAUD UNIVERSITY, priority 2018, dated 2018)

Experiments:
[1] = test system: alloxan-induced diabetic mouse model; experiment: Acute evaluation of in vivo oral hypoglycemic activity; conditions: diabetic mice, single oral dose 200 μg/kg body weight, mean ± SEM, n=6
Experimental: The sulfonylurea derivatives of oleanolic acid were screened for their oral hypoglycemic activity in vivo using the alloxan-induced diabetic mouse model. In an acute evaluation, the percentage change in blood glucose levels in diabetic mice after oral administration of the test compounds (200 μg/kg body weight) was measured and summarized in Table 1 and FIG. 2.
Briefly, animals were fasted overnight and the fasting blood glucose (BG) (0 hour) levels were calculated. Test and control compounds were administered at a fixed dose of 200 μg/kg body weight orally (homogenized suspension in 0.5% carboxymethyl cellulose (CMC) and permissible amounts of Tween 80). Animals in the vehicle-treated group were given an equal volume of 0.5% CMC and control group animals were untreated. Blood samples were removed from all animals at 2, 4, 6 and 24 hours and the percentage change in BG was calculated. The data were analyzed by one-way ANOVA followed by Dunnett's test. The results were expressed as mean±standard error of mean for each group, n=6 for each group, and p<0.01 or p<0.05 was considered as statistically significant.

[2] = test system: alloxan-induced diabetic mouse model; experiment: Sub-acute evaluation of in vivo oral hypoglycemic activity (21 days dosing, 7 days rest); conditions: diabetic mice, mean ± SEM, n=6; for % change in BG, 7 days rest period: day 28: 7 days rest after 21 days oral 200 μg/kg body weight; for % change in BG, 7 day / % change in BG, 14 day / % change in BG, 21 day: oral 200 μg/kg body weight daily; for % change in BG, 7 day: day 7; for % change in BG, 14 day: day 14; for % change in BG, 21 day: day 21
Experimental: The sulfonylurea derivative compounds were also screened for their oral hypoglycemic activity after several days of administration using the alloxan-induced diabetic mouse model, and percentage changes in blood glucose levels after oral administration ([…] body weight) were recorded (Table 2).
Briefly, animals were fasted overnight, and the fasting BG (0 day) levels were calculated. Test and control compounds were administered orally for 21 days at a fixed time and a fixed dose of 200 μg/kg body weight (homogenized suspension in 0.5% CMC and permissible amounts of Tween 80). After 21 days, treatment was stopped and animals were rested for a period of 7 days. Animals in the vehicle-treated group were then given an equal amount of 0.5% CMC and those of control group were untreated. Blood samples were removed from all animals throughout the course of the study at 7, 14, 21 and 28 days, and percentage change in BG was calculated. The data were analyzed by one-way ANOVA, followed by Dunnett's test. The results were expressed as mean±standard error of mean for each group, n=6 for each group, and p<0.01 or p<0.05 was considered as statistically significant (Table 2).

SMILES	% change in BG, 2 h [1] [%]	% change in BG, 4 h [1] [%]	% change in BG, 6 h [1] [%]	% change in BG, 24 h [1] [%]	% change in BG, 7 days rest period [2] [%]	% change in BG, 7 day [2] [%]	% change in BG, 14 day [2] [%]	% change in BG, 21 day [2] [%]
COc1ccc(Cl)cc1C(=O)NCCc1ccc(S(=O)(=O)NC(=O)NC2CCCCC2)cc1 [Glibenclamide, glibenclamide]	−35.55 ± 1.55	−26.54 ± 1.32	−15.58 ± 0.88	−11.24 ± 0.11	−28.48 ± 0.58	−16.23 ± 0.32	−22.57 ± 0.54	−30.87 ± 0.58
CC1(C)CC[C@]2(C(=O)O)CC[C@]3(C)C(=CC[C@@H]4[C@@]5(C)CC[C@H](O)C(C)(C)[C@@H]5CC[C@]43C)[C@@H]2C1 [Oleanolic acid, oleanolic acid]	−40.79 ± 1.20	−48.66 ± 1.31	−52.17 ± 1.31	−51.01 ± 1.11	−30.32 ± 0.83	−10.56 ± 0.80	−20.35 ± 0.72	−37.68 ± 0.78
CC1CCC(NC(=O)NS(=O)(=O)c2ccc(CCNC(=O)C34CCC(C)(C)CC3C3=CCC5C6(C)CCC(=O)C(C)(C)C6CCC5(C)C3(C)CC4)cc2)CC1 (stereo not drawn) [Compound 3b, N1-[4-(3-Oxo-18β-olean-12-ene-28-amido-ethyl)-benzenesulfonyl]-N2-(4-methylcyclohexyl)-urea]	−75.56 ± 0.86	−80.97 ± 0.92	−88.89 ± 0.98	−76.76 ± 0.89	−82.12 ± 1.17	−80.80 ± 0.80	−84.98 ± 1.16	−88.89 ± 1.12
CC1(C)CC[C@]2(C(=O)NCCc3ccc(S(=O)(=O)NC(=O)NC4CCCCC4)cc3)CC[C@]3(C)C(=CC[C@@H]4[C@@]5(C)CCC(=O)C(C)(C)[C@@H]5CC[C@]43C)[C@@H]2C1 [Compound 3a, N1-[p-(4-Oxo-18β-olean-12-ene-28-amido-ethyl)-benzenesulfonyl]-N2-cyclohexyl-urea]	−72.76 ± 0.78	−77.76 ± 0.90	−83.56 ± 0.83	−74.44 ± 0.74	−81.78 ± 0.90	−76.87 ± 0.89	−80.09 ± 0.90	−87.65 ± 0.95
